The nature of this test: Evaluation of taste (bitter, sour, sweet) by panellists, orange juice with and without added 4-hydroxyflavanone. It is filed as in vivo. From the text:
Masking the perception of sour and the bitterness in orange juice, which was obtained from premature fruits and/or HLB infected fruits with at least 5 ppm limonin
A commercial orange juice was used for the experiments, which according to an analysis contains 7.8 ppm limonin and was regularly evaluated as too bitter from the panellists. The panellists (n=6) thereby evaluate the 3 attributes “sweet”, “bitter” and “sour” on an unstructured scale of 0 (no taste) to 10 (strong taste). In one sample, the panellists received the orange juice alone, in a further sample, they received the orange juice which was supplemented with an amount of 4-hydroxyflavanone as listed in one of the tables. Thereby, the order was arbitrary and not known to the panellists before.

The mark [1] stands for this setting: 30 ppm in the examined orange juice.
[2] abbreviates: 30 ppm racemic homoeriodictyol-sodium-salt vs orange juice (7.8 ppm limonin) alone, Example 4.
[3] abbreviates: 50 ppm racemic homoeriodictyol-sodium-salt vs orange juice (7.8 ppm limonin) alone, Example 3.
Where [4] appears, read: orange juice containing 7.8 ppm limonin + 30 ppm racemic homoeriodictyol-sodium-salt, scale 0-10, n=6 panellists, Example 4.
The mark [5] stands for this setting: orange juice containing 7.8 ppm limonin + 50 ppm racemic homoeriodictyol-sodium-salt, scale 0-10, n=6 panellists, Example 3.
[6] abbreviates: 20 ppm in the examined orange juice.
Where [7] appears, read: 20 ppm racemic naringenin vs orange juice (7.8 ppm limonin) alone, Example 1.
Where [8] appears, read: orange juice containing 7.8 ppm limonin + 20 ppm racemic naringenin, scale 0-10, n=6 panellists, Example 1.
The mark [9] stands for this setting: 10 ppm in the examined orange juice.
[10] abbreviates: 10 ppm racemic eriodictyol vs orange juice (7.8 ppm limonin) alone, Example 2.
Where [11] appears, read: B (10 ppm racemic eriodictyol) vs A (orange juice 7.8 ppm limonin alone), Example 5.
Where [12] appears, read: orange juice containing 7.8 ppm limonin + 10 ppm racemic eriodictyol, scale 0-10, n=6 panellists, Example 2.
Setting [13] is: sample B: orange juice containing 7.8 ppm limonin + 10 ppm racemic eriodictyol, scale 0-10, Example 5.

Counter-ions that a name gives are not always drawn.

Take `COc1cc([C@@H]2CC(=O)c3c(O)cc(O)cc3O2)ccc1O` (racemic) [racemic homoeriodictyol-sodium-salt, homoeriodictyol-sodium-salt]: under setting [1], the “effect on bitter taste (in words)” value is listed as “clear reduction”, the “effect on sour impression (in words)” value was “decreases” and the “effect on sweet taste (in words)” value was “does not influence”. For the same molecule, under setting [2], the “Relative change Bitter” value is −27%, the “Relative change Sour” value is −12% and the “Relative change Sweet” value is “+3%”. For the same molecule, the “effect on sour perception (in words)” value (50 ppm in the examined orange juice) is “influenced more strongly”. For the same molecule, under setting [3], the “Relative change Bitter” value is recorded as −13%, the “Relative change Sour” value is −23% and the “Relative change Sweet” value is on record as “+24%”. In addition, under setting [4], the “Evaluation (0-10) Bitter” value is given as 3.2, the “Evaluation (0-10) Sour” value is 4.1 and the “Evaluation (0-10) Sweet” value stood at 4.8. For the same molecule, under setting [5], the “Evaluation (0-10) Bitter” value came to 4.1, the “Evaluation (0-10) Sour” value is given as 3.3 and the “Evaluation (0-10) Sweet” value was 4.0.
With `O=C1C[C@@H](c2ccc(O)cc2)Oc2cc(O)cc(O)c21` (racemic) [racemic naringenin, naringenin], under setting [6], the “effect on bitter taste (in words)” value is “clear reduction”, the “effect on sour impression (in words)” value is given as “decrease” and the “effect on sweet impression (in words)” value is “increase”. Under setting [7], the “Relative change Bitter” value was −31%, the “Relative change Sour” value is reported as −25% and the “Relative change Sweet” value is “+30%”. Besides, the “Evaluation (0-10) Bitter” value (orange juice containing 7.8 ppm limonin + 20 ppm racemic naringenin, scale 0 (no taste) to 10 (strong taste), n=6 panellists, Example 1) was 3.4. Under setting [8], the “Evaluation (0-10) Sour” value is given as 3.3 and the “Evaluation (0-10) Sweet” value is given as 5.2.
Turning to `O=C1C[C@@H](c2ccc(O)c(O)c2)Oc2cc(O)cc(O)c21` (racemic) [racemic eriodictyol, eriodictyol], under setting [9], the “effect on bitter taste (in words)” value is reported as “strong reduction”, the “effect on sour perception (in words)” value was “decreased” and the “effect on sweet impression (in words)” value is “increased”. Under setting [10], the “Relative change Bitter” value is recorded as −32%, the “Relative change Sour” value is reported as −20% and the “Relative change Sweet” value is “+28%”. Also, under setting [11], the “Relative change A/B Bitter” value is given as −21%, the “Relative change A/B Sour” value was −12% and the “Relative change A/B Sweet” value was “+40%”. Further, under setting [12], the “Evaluation (0-10) Bitter” value was found to be 3.2, the “Evaluation (0-10) Sour” value amounted to 4.4 and the “Evaluation (0-10) Sweet” value was found to be 5.1. Further, under setting [13], the “Evaluation (0-10) Bitter” value is given as 3.9, the “Evaluation (0-10) Sour” value is on record as 4.4 and the “Evaluation (0-10) Sweet” value was determined as 4.2.

The values above are taken from patent US10765134B2, “Foodstuff containing citrus products having added 4-hydroxyflavanones” (SYMRISE AG, priority 2015, dated 2020).
